# Results published in patent publication US20070174925A1, “Treatment models and uses thereof” (priority 2003, published 2007).
# Experiments:
# [1] = tested on: zebrafish; test: DMSO tolerance of zebrafish; assay type: in vivo; conditions: final concentration in fish water
# Protocol: A further advantage of zebrafish is the fact they live in water. This makes administration of candidate chemicals easy. Moreover, the inventors have discovered that zebrafish are also DMSO tolerant. This is important as many drugs are dissolved in DMSO. The inventors have established that zebrafish can tolerate 1% DMSO. Thus, a candidate drug or other test substance may be dissolved in DMSO and administered to zebrafish by adding to the fish water to give a final concentration of DMSO of at least up to 1%. This is employed in various preferred aspects and embodiments of the present invention.
# [2] = tested on: larval zebrafish; test: temperature gradient assay of thermal nociception; assay type: in vivo; conditions: for location of fish in temperature gradient versus control fish: fish less than 10 days old, opiate 1 ug/ml or cannabinoid 5 ug/ml in water for 30 minutes at 28° C. before testing, t=10 mins
# Protocol: 1. The ambient environment was prepared through the use of an air handling system to maintain a constant air temperature below 24° C., enabling maintenance of a stable water gradient.
# 2. A shallow tray was taken of dimensions 2 cm deep, 30 cm long and 20 cm wide. This was filled with oxygenated water from the aquarium, the composition of which is suitable sustain zebrafish. This water was cooled to less than the lowest temperature desired in the gradient.
# 3. The tray was placed on top of two heating plates: a hot plate, capable of heating to high temperatures, and a hot block. The heights of the blocks were adjusted so that when the tray is placed on top of them the tray lies flat (FIG. 1). It was important to ensure the heating surfaces were symmetrically located under the long axis of the tray to ensure equal heating of both longitudinal halves of the tray.
# 4. A transparent 30 cm ruler was placed on top of the tray and the boundaries of 4 quadrants marked on it: 0-7.5 cm, 7.5-15 cm, 15-22.5 cm and 22.5-30 cm (FIGS. 2 and 8). These serve to split the gradient up into areas as a means of summarizing temperature choice.
# 5. Aluminum foil was used to make channels for the fish to swim in. These were water tight and closed at one end and open at the other. […] The open end is necessary so that as water evaporates from the hot end the channels don't dry up. They were then placed in the water with the closed end at the cool end. They were then filled with water. The channels were in the middle of the tray, i.e. not closer to one long side of the tray than the other.
# 6. The hotplate and hotblock were turned on to achieve a temperature of about 40° C. maintained at the hot end, with the unheated end reaching only 24° C. To measure the temperature at each quadrant boundary, thermometers were placed near the channels at each boundary.
# 7. When a stable gradient was achieved, fish were taken directly from the fish room (28° C.). As much of the liquid around them as possible was removed. […]
# 9. At 2, 5 and 10 minutes, the number of fish in each quadrant was counted. […]
# [3] = tested on: fish sensitized with DNCB; test: DNCB-induced hyperalgesia and its rescue, temperature gradient assay; assay type: in vivo, zebrafish; conditions: same DNCB-sensitized fish treated with an opiate and retested; t=5 mins
Compound,concentration tolerated by zebrafish [1],location of fish in temperature gradient versus control fish [2],distribution in gradient of DNCB-sensitized fish after treatment and retest (rescue of hyperalgesia) [3],location of three week old fish in temperature gradient versus untreated fish ([2]; three week old fish treated with an opiate)
C[S+](C)[O-] [DMSO],1%,,,
"CCCCC/C=C\C/C=C\C/C=C\C/C=C\CCCC(=O)NCCO [endogenous cannabinoid, Anandamide]",,less aversion to higher temperatures,,
"COC(=O)N1CCN(C(=O)Cc2ccc(Cl)c(Cl)c2)C(CN2CCCC2)C1.O=C(O)/C=C/C(=O)O (centres unmarked) [opiate, GR 89696 Fumerate]",,more often found in water of a higher temperature than control fish,"lose this sensitivity, and their distribution becomes randomized in the gradient",locate to regions of a higher temperature than untreated fish
